Numbered stars: 1 amine (or outer) side, 2 acyl side, 3 side chain; on linkers, the order of the positions; unused ones are H or OH. Bridge positions count the residues as written; N and C are the ends. Square brackets hold non-standard residues; d marks the D form. Peptide text beside a SMILES is read from it. I, II: the chains in the order shown. Hexamethylenediamine = C(CCCN[*:2])CCN[*:1]; Dip = N[C@H](C(=O)O)C(c1ccccc1)c1ccccc1; Chg = N[C@H](C(=O)O)C1CCCCC1; NMeA = CN[C@@H](C)C(=O)O
Experiments:
[1] = molecular target: Fibroblast growth factor receptor 3 (Homo sapiens) (UniProt P22607); conditions: Compound concentration 20.0 uM, Protein concentration 2.0 uM, Result type QC Liability
Chain of Fibroblast growth factor receptor 3 (Homo sapiens) (P22607 23-806 limits assumed): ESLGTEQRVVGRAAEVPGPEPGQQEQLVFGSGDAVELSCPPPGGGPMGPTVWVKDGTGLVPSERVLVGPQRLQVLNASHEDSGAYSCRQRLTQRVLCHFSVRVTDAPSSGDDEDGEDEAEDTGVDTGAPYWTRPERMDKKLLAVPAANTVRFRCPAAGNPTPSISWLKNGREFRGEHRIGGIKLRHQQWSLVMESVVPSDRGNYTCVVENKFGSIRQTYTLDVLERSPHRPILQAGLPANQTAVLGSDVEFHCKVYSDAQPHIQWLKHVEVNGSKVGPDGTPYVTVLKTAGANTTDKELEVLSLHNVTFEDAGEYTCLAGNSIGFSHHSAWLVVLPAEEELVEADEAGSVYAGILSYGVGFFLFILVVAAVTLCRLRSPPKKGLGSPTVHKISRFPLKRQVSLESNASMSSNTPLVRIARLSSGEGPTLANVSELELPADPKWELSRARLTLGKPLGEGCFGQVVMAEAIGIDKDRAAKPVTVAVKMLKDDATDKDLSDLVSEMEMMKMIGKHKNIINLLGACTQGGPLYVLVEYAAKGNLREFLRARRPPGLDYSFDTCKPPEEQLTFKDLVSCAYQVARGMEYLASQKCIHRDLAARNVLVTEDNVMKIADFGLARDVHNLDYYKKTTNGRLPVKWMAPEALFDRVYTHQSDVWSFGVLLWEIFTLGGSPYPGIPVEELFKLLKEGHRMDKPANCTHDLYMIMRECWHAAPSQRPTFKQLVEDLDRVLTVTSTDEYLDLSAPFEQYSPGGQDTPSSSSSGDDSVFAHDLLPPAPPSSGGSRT
Description: Thermal Shift Assay. Domain: start/stop: P449-E759

Peregrin (Homo sapiens) = molecular target: T1, Peregrin (Homo sapiens) (UniProt P55201); conditions: Compound concentration 20.0 uM, Protein concentration 2.0 uM, Result type QC Liability
T1 sequence (whole entry): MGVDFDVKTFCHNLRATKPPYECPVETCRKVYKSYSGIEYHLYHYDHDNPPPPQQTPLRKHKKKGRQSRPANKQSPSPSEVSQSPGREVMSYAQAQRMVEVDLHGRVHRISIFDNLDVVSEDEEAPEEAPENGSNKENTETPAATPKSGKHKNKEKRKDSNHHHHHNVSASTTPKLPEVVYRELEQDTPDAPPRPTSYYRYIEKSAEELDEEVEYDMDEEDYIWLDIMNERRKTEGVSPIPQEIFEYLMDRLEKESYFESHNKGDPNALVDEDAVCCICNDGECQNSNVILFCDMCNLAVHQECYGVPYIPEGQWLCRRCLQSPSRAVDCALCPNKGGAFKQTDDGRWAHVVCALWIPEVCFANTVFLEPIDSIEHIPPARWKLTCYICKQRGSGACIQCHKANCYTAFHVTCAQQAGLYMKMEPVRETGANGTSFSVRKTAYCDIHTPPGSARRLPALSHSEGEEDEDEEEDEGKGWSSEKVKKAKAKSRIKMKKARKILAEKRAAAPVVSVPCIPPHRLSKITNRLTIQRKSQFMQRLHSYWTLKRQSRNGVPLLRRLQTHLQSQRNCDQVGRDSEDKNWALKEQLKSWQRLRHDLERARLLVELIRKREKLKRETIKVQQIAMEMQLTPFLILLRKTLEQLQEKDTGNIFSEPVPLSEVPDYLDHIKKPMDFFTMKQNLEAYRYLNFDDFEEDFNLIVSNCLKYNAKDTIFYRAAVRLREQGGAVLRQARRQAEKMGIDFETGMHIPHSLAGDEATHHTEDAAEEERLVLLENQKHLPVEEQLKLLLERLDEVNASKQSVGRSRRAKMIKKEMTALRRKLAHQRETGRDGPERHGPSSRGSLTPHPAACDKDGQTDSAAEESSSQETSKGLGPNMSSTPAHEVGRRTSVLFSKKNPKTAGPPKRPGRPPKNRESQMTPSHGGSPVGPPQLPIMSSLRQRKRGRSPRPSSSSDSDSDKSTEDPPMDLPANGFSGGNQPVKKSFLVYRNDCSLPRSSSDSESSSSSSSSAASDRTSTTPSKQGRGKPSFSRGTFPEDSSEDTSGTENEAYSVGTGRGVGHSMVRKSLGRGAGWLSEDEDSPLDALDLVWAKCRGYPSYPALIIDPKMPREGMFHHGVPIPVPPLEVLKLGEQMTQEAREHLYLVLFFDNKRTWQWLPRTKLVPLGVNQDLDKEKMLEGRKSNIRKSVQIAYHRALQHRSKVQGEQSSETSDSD

Compound	ΔTm [1]	ΔTm (Peregrin (Homo sapiens))
C=C1/C(=C\C=C2/CCC[C@]3(C)[C@@H]([C@H](C)CCCC(C)(C)O)CC[C@@H]23)C[C@@H](O)C[C@@H]1O	1.25 °C	-2.59 °C
CSc1ccc(C[C@@H](C)C(=O)O)cc1Nc1nc(N2CC[C@H](N(C)C)C2)cc(C(F)F)c1C#N	0.35 °C	-2.68 °C
Cn1cc(-n2cnc3c(NCc4nc5cc(Cl)c(Cl)cc5[nH]4)nc(N4CCOCC4)nc32)cn1	0.69 °C	-0.07 °C
COCCN(C)c1ccc(NC(=O)/C=C(\C)c2ccc3ccccc3c2)c(C(=O)O)c1	1.15 °C	-1.83 °C
CNc1nc(Nc2ccc(C(=O)N3CCOCC3)cc2OC)ncc1Cl	0.95 °C	-1.86 °C
CN(C)[C@H]1CC[C@H](Nc2ncc3ncnc(Nc4ccc(F)c(Cl)c4)c3n2)CC1	0.8 °C	1.59 °C
COc1ccc(C(=O)N[C@H](C)c2cccc(C(=O)Nc3nc4c(s3)CN(C)CC4)c2)cc1C	0.97 °C	-0.23 °C
Cc1ncc(C(=O)Nc2cc(C(C)(C)C)on2)cc1-n1cc(-c2cnn(C)c2C)nn1	2.95 °C	0.08 °C
Clc1ccc(-c2nc3sccn3c2/C=N/OCc2ccc(Cl)c(Cl)c2)cc1	0.55 °C	-0.92 °C
CO[C@H]1C[C@@H]2CC[C@@H](C)[C@@](O)(O2)C(=O)C(=O)N2CCCC[C@H]2C(=O)O[C@H]([C@H](C)C[C@@H]2CC[C@@H](O)[C@H](OC)C2)CC(=O)[C@H](C)/C=C(\C)[C@@H](O)[C@@H](OC)C(=O)[C@H](C)C[C@H](C)/C=C/C=C/C=C/1C	0.26 °C	-1.78 °C
N=C(N)NCCC[C@H](NC(=O)CC1(CC(=O)N2CCN(C3c4ccccc4NC(=O)c4ccccc43)CC2)CCCC1)C(=O)NCCn1c(=O)n(-c2ccccc2)n(-c2ccccc2)c1=O (some centres undefined)	-5.62 °C	-2.29 °C
CC1CCN(c2ccnc(NCc3cn(C)cn3)n2)CC1	0.69 °C	-2.32 °C
Fc1cccc(-n2cnc3c(NCc4nc5c(F)c(F)ccc5[nH]4)nc(N4CCOCC4)nc32)c1	-0.16 °C	-0.08 °C
CC/C(=C(\c1ccccc1)c1ccc(OCCN(C)C)cc1)c1ccccc1	0.3 °C	-3.71 °C
C[C@H](NC(=O)c1cnc2n1[C@](C)(Cc1ccc(C#N)cc1)C(=O)N2c1cc(Cl)c(F)c(Cl)c1)C(=O)NC1(c2ccccn2)CC1	0.96 °C	-0.27 °C
Cc1ccc(NC(=O)c2ccc(CN3CC[C@H](N(C)C)C3)c(C(F)(F)F)c2)cc1Nc1nccc(-c2cncnc2)n1	0.68 °C	-3.14 °C
COc1cc(C(=O)NC2CCN(C)CC2)ccc1Nc1ncc(C(F)(F)F)c(NCc2ccc(C)cc2N(C)S(C)(=O)=O)n1	2.55 °C	-1.4 °C
O=C(Nc1snnc1C(=O)Nc1ccc(N2CCCC2)cc1)c1cncc(C(F)(F)F)c1	0.45 °C	0.2 °C
CN(C)C/C=C/C(=O)Nc1ccc(C(=O)Nc2cccc(Nc3ncc(Cl)c(-c4c[nH]c5ccccc45)n3)c2)cc1	6.9 °C	0.03 °C
CC(=O)Oc1ccc2c(c1)[C@@]1(C)CCC[C@](C)(C(=O)OC(=O)[C@@]3(C)CCC[C@]4(C)c5cc(OC(C)=O)ccc5CC[C@@H]34)[C@@H]1CC2	0.1 °C	-2.67 °C
CC(C)(C)c1cnc(CSc2cnc(NC(=O)C3CCN(CC(=O)NCCOCCOCCOCCNc4cccc5c4C(=O)N(C4CCC(=O)NC4=O)C5=O)CC3)s2)o1 (centres undefined)	0.29 °C	-0.35 °C
Cc1nc2c(cc1F)c(-c1nnc3c(n1)NC(=O)C3(C)C)nn2Cc1cccc(F)c1F	0.5 °C	-2.09 °C
CN[C@@H](C)C(=O)N[C@H](C(=O)N1CCC[C@H]1C(=O)N[C@H](C(=O)NCCCCCCNC(=O)[C@@H](NC(=O)[C@@H]1CCCN1C(=O)[C@@H](NC(=O)[C@H](C)NC)C1CCCCC1)C(c1ccccc1)c1ccccc1)C(c1ccccc1)c1ccccc1)C1CCCCC1 (I: H-[NMeA][Chg]P[Dip] / II: H-[NMeA][Chg]P[Dip]; linker I:C-II:C via Hexamethylenediamine)	0.66 °C	-2.83 °C
CNC(=O)c1cc(C(=O)N[C@H]2[C@@H]3COC[C@@H]32)cc2c1O[C@@H](CF)[C@@H]2c1ccccc1	0.48 °C	-1.16 °C

Compound	ΔTm [1]	ΔTm (Peregrin (Homo sapiens))
CC(C(=O)Nc1cc(C#N)ccc1CCCC(=O)O)c1ccc(F)c2ccccc12 (centres undefined)	0.51 °C	-2.92 °C
NCC1CCC(CNc2nc(NCc3ccccc3OC(F)(F)F)ncc2[N+](=O)[O-])CC1 (centres undefined)	0.5 °C	0.06 °C
N#CN1CC[C@@H](C(=O)Nc2nc3c(s2)CN(C(=O)CN=[N+]=[N-])CC3)C1	0.98 °C	-1.31 °C
COc1cc(N(C)c2ccnc3ccc(C(F)(F)F)cc23)cc(OC)c1OC	0.76 °C	-1.93 °C
CC(C)C(=O)N[C@@H]1CCN(C(=O)Nc2nc3c(s2)-c2nc(-c4ccccc4Cl)ncc2CC3)C1	3.87 °C	-1.39 °C
CC(C)c1nc2c(c3c1[C@@H](c1ccc(C(F)(F)F)cc1)OC31CCOCC1)[C@@H](O)CC(C)(C)C2	0.98 °C	-3.83 °C
CC(=O)Nc1ncc(CN2CCC[C@H](Cc3cc(C)nc(C)c3)C2)s1	1 °C	0.17 °C
C[C@]12CC[C@@H]3c4ccc(O)cc4CC[C@H]3[C@@H]1C[C@H]1OC(=O)C[C@]12O	0.36 °C	-1.41 °C
CP(C)(=O)c1ccc(CNC(=O)C2CCN(S(=O)(=O)c3cc(Cl)cc(Cl)c3)CC2)cc1	0.53 °C	-3.29 °C
COC(=O)c1sccc1S(=O)(=O)Nc1ccc(Nc2ccccc2)cc1OC	0.39 °C	-1.04 °C
CN1CCC(C#N)(NC(=O)[C@@H](NC(=O)N2CCOCC2)C(C)(C)C)CC1	0.67 °C	-2.33 °C
CN(C)C(=O)Cn1cc(-c2ccc(-c3nnc4ccccn34)cc2)cn1	0.47 °C	-2.13 °C
Nc1nccc(-c2c(-c3ccc(F)cc3)ncn2C2CCN(Cc3ccon3)CC2)n1	0.95 °C	-1.77 °C
COc1cccc(Cn2cc(C(=O)Nc3ccc(C)c(S(=O)(=O)N4CCOCC4)c3)c(-c3ccc(C)cc3)n2)c1	3.17 °C	4.54 °C
Cc1ncsc1-c1ccc(CNC(=O)[C@@H]2C[C@@H](O)CN2C(=O)[C@@H](NC(=O)CCCCNC(=O)c2ccc(-c3ccc(N4CCN(C)CC4)c(NC(=O)c4c[nH]c(=O)cc4C(F)(F)F)c3)cc2)C(C)(C)C)cc1	-2.23 °C	1.18 °C
C/C(=C\C(=O)Nc1ccccc1C(=O)O)c1ccc2ccccc2c1	1.14 °C	-1.56 °C
c1ccc(C(OC2CCN(CCCc3nnn[nH]3)CC2)c2ccccc2)cc1	0.52 °C	-2.95 °C
C[C@H](NC(=O)c1cc(Cl)ccc1Oc1ccc(F)cc1)c1ccc(C(=O)O)cc1	0.47 °C	-3.01 °C
COc1cc(C)c(S(=O)(=O)N(C)CCOCC(=O)N(C)[C@H]2CCC[C@@H](N3CCN(C)CC3)C2)c(C)c1	0.64 °C	-2.36 °C
CCOC(=O)Nc1ccc2c(c1)N(C(=O)CN(CC)CC)c1ccccc1CC2	0.66 °C	-1.21 °C
COc1cc2ncnc(Nc3cccc(O)c3)c2cc1OC	2.74 °C	-1.59 °C
CCNc1ccc(-c2nn(-c3ccccc3C)c3c2C(C)Cc2nc(NC(=O)OC)sc2-3)cn1 (centres undefined)	0.96 °C	-1.43 °C
COc1cc(C(=O)NCCOCCOCCOCC(=O)N[C@H](C(=O)N2C[C@H](O)C[C@H]2C(=O)NCc2ccc(-c3scnc3C)cc2)C(C)(C)C)ccc1Nc1ncc(C(F)(F)F)c(Oc2cccc3c2C(=O)CC3)n1	1.52 °C	-0.82 °C
